Earlier results as cited in patent US9060937B2, “Pharmaceutical compositions” (priority 2006, dated 2015).

Details: in water

solubility: < 0.1 µg/mL
SMILES: CCCCC1=NC2(CCCC2)C(=O)N1Cc1ccc(-c2ccccc2-c2nnn[nH]2)cc1 [irbesartan, Irbesartan]
